Results on 22 molecules are retold here after article PMC9814657, “Generative and reinforcement learning approaches for the automated de novo design of bioactive compounds” (Communications Chemistry, 2022).

In assay [1] the target is T1, epidermal growth factor receptor (EGFR) (Homo sapiens, UniProt P00533). Description: biochemical. Also noted: 33P radiometric HotSpot filter-binding EGFR kinase assay, 10 uM ATP, Reaction Biology. Conditions: 10 uM ATP. As to the method: (§1) Compounds that emerged as computational hits were purchased from Enamine (https://www.enaminestore.com/) and resuspended in 100% DMSO at 10 mM concentration. In vitro experiments were performed at Reaction Biology (https://www.reactionbiology.com/) using a radioactive assay based on the transfer of ^33P-labeled phosphate from ATP to the kinase substrate. The HotSpot^SM assay utilizes a miniaturized filter binding, where reaction mixtures are spotted onto filter papers. Then reaction mixture binds the radioisotope-labeled catalytic product. Unreacted phosphate is removed via washing of the filter papers. All reactions were carried out at 10 μM ATP concentrations. Seventeen computational hit molecules were matched with Enamine REAL. All of the predicted active compounds were derivatives of 4-anilinoquinazoline, a chemotype that was well represented in Enamine REAL (Table S1). The predicted active compounds contained a few small substituents on the quinazoline ring (positions 5–8: F, Cl, Br, OCH3) but a wide range of substituents on the 4-anilino group. […] The twenty three 4-anilinoquinazoline analogs were dissolved in DMSO and sent to Reaction Biology (https://www.reactionbiology.com/) for EGFR enzymatic assay screening. Two compounds in the predicted active series were insoluble in DMSO; therefore, biological tests were not performed. The 4-anilinoquinazoline analogs were initially tested in single-dose duplicate mode at a concentration of 1 μM and percent inhibition relative to DMSO control was determined (Table S1).

Assay [2] addresses T1, epidermal growth factor receptor (EGFR). Briefly: biochemical. Conditions: 10 uM ATP; read-out: EGFR pIC50 (converted). Also noted: 33P radiometric HotSpot filter-binding EGFR kinase assay, 10 uM ATP, Reaction Biology. As to the method:
as §1, with “REAL.” for “REAL. All of the predicted active compounds were derivatives of 4-anilinoquinazoline, a chemotype that was well represented in Enamine REAL (Table S1). The predicted active compounds contained a few small substituents on the quinazoline ring (positions 5–8: F, Cl, Br, OCH3) but a wide range of substituents on the 4-anilino group.”, “Two compounds in the predicted active series were insoluble in DMSO; therefore, biological tests were not performed.” left out

For assay [3] the target is unchanged. Description: […] radiometric HotSpot kinase assay, 10-dose IC50, […] ATP (Reaction Biology). The format is biochemical.

T1 sequence (P00533 25-1210): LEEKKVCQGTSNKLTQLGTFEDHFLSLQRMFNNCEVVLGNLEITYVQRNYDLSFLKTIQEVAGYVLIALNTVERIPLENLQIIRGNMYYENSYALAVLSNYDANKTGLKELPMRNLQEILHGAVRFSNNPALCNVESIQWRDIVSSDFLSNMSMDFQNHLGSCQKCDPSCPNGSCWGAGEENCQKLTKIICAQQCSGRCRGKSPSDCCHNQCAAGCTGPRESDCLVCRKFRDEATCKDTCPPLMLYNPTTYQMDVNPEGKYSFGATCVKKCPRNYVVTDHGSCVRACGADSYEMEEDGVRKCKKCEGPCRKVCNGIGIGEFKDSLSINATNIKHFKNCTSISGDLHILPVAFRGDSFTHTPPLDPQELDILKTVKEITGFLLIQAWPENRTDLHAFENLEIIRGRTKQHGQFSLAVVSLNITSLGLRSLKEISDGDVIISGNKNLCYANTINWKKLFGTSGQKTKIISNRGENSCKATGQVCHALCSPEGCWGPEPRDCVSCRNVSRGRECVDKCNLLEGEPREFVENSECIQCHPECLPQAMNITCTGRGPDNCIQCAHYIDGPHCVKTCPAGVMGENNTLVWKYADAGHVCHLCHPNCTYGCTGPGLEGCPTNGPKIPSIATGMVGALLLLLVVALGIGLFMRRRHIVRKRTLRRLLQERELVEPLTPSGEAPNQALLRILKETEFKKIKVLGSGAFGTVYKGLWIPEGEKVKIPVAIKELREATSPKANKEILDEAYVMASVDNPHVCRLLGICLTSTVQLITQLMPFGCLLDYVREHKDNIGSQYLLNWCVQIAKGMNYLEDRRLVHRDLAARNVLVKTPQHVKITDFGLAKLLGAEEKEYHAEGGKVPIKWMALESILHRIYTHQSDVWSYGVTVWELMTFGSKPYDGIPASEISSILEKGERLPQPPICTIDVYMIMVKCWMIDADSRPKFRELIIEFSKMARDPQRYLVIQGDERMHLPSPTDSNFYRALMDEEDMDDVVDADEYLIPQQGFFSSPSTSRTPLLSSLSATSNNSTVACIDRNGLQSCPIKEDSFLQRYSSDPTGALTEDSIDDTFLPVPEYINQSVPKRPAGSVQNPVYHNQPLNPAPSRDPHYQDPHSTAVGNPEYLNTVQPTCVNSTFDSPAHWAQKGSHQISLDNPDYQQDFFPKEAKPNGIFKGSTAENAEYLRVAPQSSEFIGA

By inhibition is commonly meant how much of the control response was suppressed. The low end stands for a response near the control, the high end for a response far below the control. In the case of `Fc1ccc(Nc2ncnc3ccc(Br)cc23)cc1` [ZINC000000099087], in assay [1], the inhibition at 1 µM stood at 96%. In addition, the IC50 in assay [2] is 31.6 nM.
As to `Fc1ccc2ncnc(Nc3ccc(N4CCCC4)cc3)c2c1` [ZINC000041479925], in assay [1], the inhibition at 1 µM amounted to 8%.
In the case of `CN(C)C1CCN(c2ccc(Nc3ncnc4ccc(F)cc34)cc2)CC1` [ZINC000089266948], the inhibition at 1 µM in assay [1] came to 14%.
With `Fc1ccc(Nc2ncnc3ccc(F)cc23)cc1` [ZINC000092611293], testing at 1 µM in assay [1] gave an inhibition of 12%.
As to `OC1CCN(c2ccc(Nc3ncnc4ccc(Br)cc34)cc2)CC1` [ZINC000112964683], the inhibition at 1 µM in assay [1] turned out to be 10%.
Still for that read-out and setting: with `CNC(=O)CCOc1ccc(Nc2ncnc3cc(Cl)ccc23)cc1` [ZINC000301175853] the figure was 12%.
The molecule `Nc1c(Cl)cc(Nc2ncnc3ccc(F)cc23)cc1Cl` [ZINC000301931984] registered an inhibition at 1 µM in assay [1] of 89%. For the same molecule, the IC50 in assay [2] is 39.8 nM.
In assay [1], `CN(C)CCc1ccc(Nc2ncnc3ccc(F)cc23)cc1` [ZINC000301950472] gave an inhibition at 1 µM of 10%.
Molecule `CN(C)C1CCN(c2ccc(Nc3ncnc4ccc(Br)cc34)cc2)CC1` [ZINC000301979927] displayed an inhibition at 1 µM in assay [1] of 8%.
In assay [1], `COCCOc1ccc(Nc2ncnc3cc(F)c(OC)cc23)cc1F` [ZINC000302555896] registered an inhibition at 1 µM of 12%.
For `Nc1c(Cl)cc(Nc2ncnc3c(F)cccc23)cc1Cl` [ZINC000302791534], 1 µM produced 47% inhibition in assay [1]. In addition, the IC50 in assay [2] was 1260 nM.
Turning to `CN(C)C1CCN(c2ccc(Nc3ncnc4c(F)cccc34)cc2)CC1` [ZINC000302845052], the inhibition at 1 µM in assay [1] was determined as 12%.
For `COCCOc1ccc(Nc2ncnc3c(F)cccc23)cc1Cl` [ZINC000302873009], in assay [1], the inhibition at 1 µM came out at 16%.
Molecule `OC1CCCCC1Oc1ccc(Nc2ncnc3ccc(F)cc23)cc1` (centres unmarked) [ZINC000440544230] had an inhibition at 1 µM in assay [1] of 4%.
On to `Cc1ccc(Nc2ncnc3cccc(F)c23)cc1F` [ZINC000480349471], for which at 1 µM the inhibition in assay [1] was 83%. In addition, the IC50 in assay [2] is 200 nM.
For the molecule `COCCOc1ccc(Nc2ncnc3cccc(F)c23)cc1F` [ZINC000480418233], the inhibition at 1 µM in assay [1] stood at 8%.
The molecule `OCCCOc1ccc(Nc2ncnc3cc(Cl)ccc23)cc1` [ZINC000572311742] showed an inhibition at 1 µM in assay [1] of 0%.
On to `CN(C)CCc1ccc(Nc2ncnc3ccc(Cl)cc23)cc1` [ZINC000594704454], for which, in assay [1], testing at 1 µM gave an inhibition of 8%.
With `CN(C)CC1CCN(c2ccc(Nc3ncnc4ccc(Br)cc34)cc2)CC1` [ZINC000737413605], the inhibition at 1 µM in assay [1] turned out to be 14%.
In turn, `Fc1ccc(Nc2ncnc3ccc(Br)cc23)cc1` [compound 1, Z1192045732] yielded a pIC50 in assay [3] of 7.5 pIC50.
In turn, `Nc1c(Cl)cc(Nc2ncnc3ccc(F)cc23)cc1Cl` [compound 2, Z1576525970] gave a pIC50 in assay [3] of 7.4 pIC50.
For the molecule `Nc1c(Cl)cc(Nc2ncnc3c(F)cccc23)cc1Cl` [compound 4, Z1823625743], the IC50 in assay [3] stood at 1400 nM.
